{
  "source": "ChEMBL document CHEMBL1201862",
  "about": "“PubChem BioAssay data set” (2004)",
  "key": {"[1]": {"test": "viability loss in CEM21 cells – cell-based, CellTiter-Glo luminescence, cherry-picked, cytotoxicity control for viral fusion inhibitor project, dose response (AID 652042);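 also: potency for signal decrease meaning cytotoxicity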", "format": "functional"}, "[2]": {"test": "HIV-1 AD8 envelope cell-cell fusion blockers – cherry-pick, dose response (AID 652062);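 also: potency is for inhibitors of fusion seen as a drop in luminescence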", "format": "functional, cell-based"}, "[3]": {"target": "SWI/SNF-related matrix-associated actin-dependent regulator of chromatin subfamily A member 2 (Homo sapiens, UniProt P51531)", "test": "Luminescence-based cell-based high throughput dose response assay to identify activators of the function of SWI/SNF related, matrix associated, actin dependent regulator of chromatin, subfamily a, member 2 (SMARCA2, BRM).", "format": "functional"}, "[4]": {"test": "Counterscreen for activators of the function of SWI/SNF related, matrix associated, actin dependent regulator of chromatin, subfamily a, member 2 (SMARCA2, BRM): Luminescence-based cell-based high throughput dose response assay to identify non-selective compounds using the VP16 reporter assay.", "format": "functional"}, "[5]": {"target": "Cyclin-dependent kinase 5/CDK5 activator 1 (Homo sapiens, UniProt Q00535)", "test": "blockade of human CDK5 activity – biochemical, cherry-picked samples, set 2, dose response (AID 504545)"}, "[6]": {"system": "SN12K1", "test": "cells", "format": "functional", "conditions": "Homo sapiens"}, "[7]": {"test": "blockers of HIV-1 ZM109 envelope-driven cell-cell fusion – HeLa effector, CEM target cells, luciferase, cherry-pick, dose response (AID 652058)", "format": "functional, cell-based"}, "[8]": {"test": "off-target signal loss in HeLa-CEM21 co-culture – HeLa F-luc CTL cells, cherry-picked, counter-screen for HIV-1 Env fusion inhibitor project, dose response (AID 652040);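 also: potency for signal decrease marking cytotoxic or nonspecific inhibition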", "format": "functional, cell-based"}, "[9]": {"test": "blockers of HIV-1 envelope-mediated cell-cell fusion – cherry-pick, dose response (AID 652057)", "format": "functional, cell-based"}, "[10]": {"target": "X-box-binding protein 1 (Homo sapiens, UniProt P17861)", "sequence (P17861 whole entry)": "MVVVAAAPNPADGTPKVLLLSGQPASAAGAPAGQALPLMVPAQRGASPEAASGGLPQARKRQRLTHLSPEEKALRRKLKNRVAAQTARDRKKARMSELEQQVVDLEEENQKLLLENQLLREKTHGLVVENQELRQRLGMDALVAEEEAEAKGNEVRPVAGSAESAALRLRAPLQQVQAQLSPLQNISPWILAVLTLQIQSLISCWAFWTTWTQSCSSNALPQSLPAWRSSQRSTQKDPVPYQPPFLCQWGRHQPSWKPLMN", "format": "functional, Cricetulus griseus"}, "[11]": {"target": "T1, SUMO-activating enzyme (Homo sapiens, UniProt Q9UBT2)", "T1 sequence (Q9UBE0 whole entry)": "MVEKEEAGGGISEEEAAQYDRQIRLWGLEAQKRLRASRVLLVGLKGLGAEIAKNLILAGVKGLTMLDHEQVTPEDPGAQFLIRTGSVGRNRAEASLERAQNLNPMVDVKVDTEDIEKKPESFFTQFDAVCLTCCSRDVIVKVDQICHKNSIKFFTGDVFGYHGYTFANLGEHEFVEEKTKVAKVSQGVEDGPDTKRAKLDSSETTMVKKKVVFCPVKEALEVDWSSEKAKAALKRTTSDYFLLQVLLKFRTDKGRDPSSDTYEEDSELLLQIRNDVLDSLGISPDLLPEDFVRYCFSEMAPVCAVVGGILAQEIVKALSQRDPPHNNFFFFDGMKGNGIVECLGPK", "T1 sequence (Q9UBT2 whole entry)": "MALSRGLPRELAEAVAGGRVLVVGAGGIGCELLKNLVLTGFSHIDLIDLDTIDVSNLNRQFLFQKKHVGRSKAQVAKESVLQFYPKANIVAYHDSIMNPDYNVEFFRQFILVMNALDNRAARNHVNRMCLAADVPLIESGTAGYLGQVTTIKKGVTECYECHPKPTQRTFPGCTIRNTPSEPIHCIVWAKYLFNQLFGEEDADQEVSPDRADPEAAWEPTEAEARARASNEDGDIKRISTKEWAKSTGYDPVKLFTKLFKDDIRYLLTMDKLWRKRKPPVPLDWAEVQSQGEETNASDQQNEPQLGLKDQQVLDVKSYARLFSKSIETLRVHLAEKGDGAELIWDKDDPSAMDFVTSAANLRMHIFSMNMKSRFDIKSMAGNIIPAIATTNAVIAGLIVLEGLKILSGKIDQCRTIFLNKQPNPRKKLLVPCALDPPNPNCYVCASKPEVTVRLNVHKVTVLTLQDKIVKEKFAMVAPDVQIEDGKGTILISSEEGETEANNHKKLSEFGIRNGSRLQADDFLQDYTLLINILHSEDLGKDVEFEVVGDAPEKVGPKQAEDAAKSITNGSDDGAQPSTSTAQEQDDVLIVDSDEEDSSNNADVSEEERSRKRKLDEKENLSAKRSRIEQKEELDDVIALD", "test": "blockers of UBC9-mediated SUMO conjugation – biochemical, AlphaScreen, SUMOylation inhibitor project, confirmation (AID 2018)", "format": "functional"}, "[12]": {"target": "Eukaryotic translation initiation factor 4E (Mus musculus, UniProt P63073)", "sequence (P63073 whole entry)": "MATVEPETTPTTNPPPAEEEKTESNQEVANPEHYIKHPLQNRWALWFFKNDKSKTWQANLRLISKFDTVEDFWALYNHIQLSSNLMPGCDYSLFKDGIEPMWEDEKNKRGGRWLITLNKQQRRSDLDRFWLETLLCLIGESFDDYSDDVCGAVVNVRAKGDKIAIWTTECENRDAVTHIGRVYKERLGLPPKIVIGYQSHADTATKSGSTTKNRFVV", "test": "blockers of eIF4G binding by eIF4E – biochemical, TR-FRET, dose response (AID 855);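 also: potency for disrupting eIF4E binding to eIF4GI seen as loss of FRET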", "format": "functional"}, "[13]": {"target": "T1, SUMO-activating enzyme", "test": "blockers of SAE1/SAE2–UBC9 SUMO transfer – biochemical, HTRF, uHTS, primary screen (AID 2006)", "format": "protein-complex assay"}, "[14]": {"target": "Long-chain-fatty-acid--AMP ligase FadD28 (Mycobacterium tuberculosis, UniProt P9WQ59)", "test": "Fluorescence polarization aasay to screen for inhibitors that compete for the binding of FadD28 to a bisubstrate Measured in Biochemical System Using Plate Reader - 2147-01_Inhibitor_Dose_CherryPick_Activity.", "format": "functional, Mycobacterium tuberculosis H37Rv"}, "[15]": {"target": "T2, Voltage-gated N-type calcium channel alpha-1B subunit/Amyloid beta A4 precursor protein-binding family A member 1 (Homo sapiens, UniProt Q00975+Q02410)", "T2 sequence (Q00975 whole entry)": "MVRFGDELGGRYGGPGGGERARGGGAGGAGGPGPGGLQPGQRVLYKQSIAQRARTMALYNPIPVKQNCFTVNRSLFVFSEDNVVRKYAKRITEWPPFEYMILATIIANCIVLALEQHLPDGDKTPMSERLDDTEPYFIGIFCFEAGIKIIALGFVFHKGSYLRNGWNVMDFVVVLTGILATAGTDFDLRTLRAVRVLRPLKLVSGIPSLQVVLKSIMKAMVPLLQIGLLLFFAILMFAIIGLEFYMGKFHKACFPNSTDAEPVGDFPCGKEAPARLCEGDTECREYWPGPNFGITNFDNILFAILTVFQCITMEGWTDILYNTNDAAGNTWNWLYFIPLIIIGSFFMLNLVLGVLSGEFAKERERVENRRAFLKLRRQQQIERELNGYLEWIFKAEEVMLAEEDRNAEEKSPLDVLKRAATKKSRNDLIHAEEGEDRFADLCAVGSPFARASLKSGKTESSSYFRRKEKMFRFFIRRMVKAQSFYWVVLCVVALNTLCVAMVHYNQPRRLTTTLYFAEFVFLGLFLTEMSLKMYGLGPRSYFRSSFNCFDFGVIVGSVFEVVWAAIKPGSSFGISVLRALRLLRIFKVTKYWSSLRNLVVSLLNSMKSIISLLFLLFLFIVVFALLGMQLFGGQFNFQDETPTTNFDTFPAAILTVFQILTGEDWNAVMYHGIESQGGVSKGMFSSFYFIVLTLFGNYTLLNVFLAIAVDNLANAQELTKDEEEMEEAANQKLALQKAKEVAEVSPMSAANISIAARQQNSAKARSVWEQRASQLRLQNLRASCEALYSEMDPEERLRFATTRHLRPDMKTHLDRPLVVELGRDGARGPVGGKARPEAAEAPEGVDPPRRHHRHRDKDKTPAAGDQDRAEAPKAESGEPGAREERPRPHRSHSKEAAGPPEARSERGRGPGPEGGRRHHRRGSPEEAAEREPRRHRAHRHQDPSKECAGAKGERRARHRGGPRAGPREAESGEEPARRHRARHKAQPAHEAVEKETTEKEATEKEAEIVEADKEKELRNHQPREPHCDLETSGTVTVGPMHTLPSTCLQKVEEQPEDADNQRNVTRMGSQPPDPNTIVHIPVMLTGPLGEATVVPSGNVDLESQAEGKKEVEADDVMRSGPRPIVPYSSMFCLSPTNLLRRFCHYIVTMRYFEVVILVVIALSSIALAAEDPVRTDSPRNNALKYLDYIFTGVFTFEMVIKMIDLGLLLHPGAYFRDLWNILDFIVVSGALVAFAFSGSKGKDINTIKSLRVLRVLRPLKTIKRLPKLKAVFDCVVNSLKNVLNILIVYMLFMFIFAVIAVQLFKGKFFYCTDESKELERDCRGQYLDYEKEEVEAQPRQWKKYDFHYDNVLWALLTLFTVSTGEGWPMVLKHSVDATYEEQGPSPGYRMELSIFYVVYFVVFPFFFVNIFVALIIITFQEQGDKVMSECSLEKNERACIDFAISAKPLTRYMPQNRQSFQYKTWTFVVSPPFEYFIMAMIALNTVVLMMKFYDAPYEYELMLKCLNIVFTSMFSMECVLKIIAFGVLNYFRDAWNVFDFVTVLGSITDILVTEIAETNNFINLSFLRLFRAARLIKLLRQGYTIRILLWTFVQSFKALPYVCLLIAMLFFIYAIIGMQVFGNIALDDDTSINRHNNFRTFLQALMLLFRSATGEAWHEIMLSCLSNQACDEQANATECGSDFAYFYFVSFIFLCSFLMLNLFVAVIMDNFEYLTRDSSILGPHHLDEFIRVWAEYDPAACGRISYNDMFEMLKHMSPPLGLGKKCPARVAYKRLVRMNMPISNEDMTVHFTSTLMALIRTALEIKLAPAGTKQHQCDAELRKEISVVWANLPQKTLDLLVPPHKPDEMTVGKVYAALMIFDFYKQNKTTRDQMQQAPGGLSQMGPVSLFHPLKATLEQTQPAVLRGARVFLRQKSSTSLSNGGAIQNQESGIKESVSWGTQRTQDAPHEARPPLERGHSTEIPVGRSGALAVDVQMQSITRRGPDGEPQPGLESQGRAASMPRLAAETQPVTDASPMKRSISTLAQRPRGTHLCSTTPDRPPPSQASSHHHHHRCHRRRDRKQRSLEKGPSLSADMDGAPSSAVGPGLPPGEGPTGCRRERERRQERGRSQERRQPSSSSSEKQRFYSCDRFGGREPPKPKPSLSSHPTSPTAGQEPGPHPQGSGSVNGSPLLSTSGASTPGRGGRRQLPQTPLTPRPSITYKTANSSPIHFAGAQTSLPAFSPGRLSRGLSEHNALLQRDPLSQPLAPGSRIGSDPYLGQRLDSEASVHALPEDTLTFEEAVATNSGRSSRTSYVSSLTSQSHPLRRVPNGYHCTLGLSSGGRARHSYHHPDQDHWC", "T2 sequence (Q02410 whole entry)": "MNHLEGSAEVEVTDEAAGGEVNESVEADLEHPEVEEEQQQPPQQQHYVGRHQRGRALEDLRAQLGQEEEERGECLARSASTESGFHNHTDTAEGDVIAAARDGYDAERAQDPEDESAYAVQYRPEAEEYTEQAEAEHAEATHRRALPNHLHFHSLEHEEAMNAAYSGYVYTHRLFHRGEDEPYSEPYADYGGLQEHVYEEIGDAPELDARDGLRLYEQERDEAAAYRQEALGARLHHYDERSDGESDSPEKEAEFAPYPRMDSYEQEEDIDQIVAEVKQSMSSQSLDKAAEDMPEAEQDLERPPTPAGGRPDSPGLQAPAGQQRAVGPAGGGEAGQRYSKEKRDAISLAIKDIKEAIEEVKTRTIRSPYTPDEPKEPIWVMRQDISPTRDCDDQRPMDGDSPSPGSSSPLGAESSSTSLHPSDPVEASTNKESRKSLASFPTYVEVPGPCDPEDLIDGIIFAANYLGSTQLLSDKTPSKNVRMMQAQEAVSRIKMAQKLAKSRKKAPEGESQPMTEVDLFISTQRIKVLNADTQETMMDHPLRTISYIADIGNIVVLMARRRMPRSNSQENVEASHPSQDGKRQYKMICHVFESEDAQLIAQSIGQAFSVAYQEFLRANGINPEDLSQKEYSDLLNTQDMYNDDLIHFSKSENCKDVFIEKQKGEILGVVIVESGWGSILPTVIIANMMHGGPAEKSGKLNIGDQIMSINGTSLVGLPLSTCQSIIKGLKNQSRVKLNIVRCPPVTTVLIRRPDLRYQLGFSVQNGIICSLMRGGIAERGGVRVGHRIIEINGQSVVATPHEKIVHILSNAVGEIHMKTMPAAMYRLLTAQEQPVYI", "test": "disruptors of Mint-PDZ/N-type channel peptide interaction – biochemical, HTRF, SAR follow-up (AID 2489)", "format": "functional"}, "[16]": {"target": "T2, Voltage-gated N-type calcium channel alpha-1B subunit/Amyloid beta A4 precursor protein-binding family A member 1", "test": "disruptors of Mint-PDZ/N-type channel peptide interaction – biochemical, HTRF, set 2, SAR follow-up (AID 434980)", "format": "functional"}, "[17]": {"system": "Vero", "test": "cells", "format": "functional", "conditions": "Chlorocebus sabaeus"}, "[18]": {"target": "C-C chemokine receptor type 6 (Homo sapiens, UniProt P51684)", "sequence (P51684 whole entry)": "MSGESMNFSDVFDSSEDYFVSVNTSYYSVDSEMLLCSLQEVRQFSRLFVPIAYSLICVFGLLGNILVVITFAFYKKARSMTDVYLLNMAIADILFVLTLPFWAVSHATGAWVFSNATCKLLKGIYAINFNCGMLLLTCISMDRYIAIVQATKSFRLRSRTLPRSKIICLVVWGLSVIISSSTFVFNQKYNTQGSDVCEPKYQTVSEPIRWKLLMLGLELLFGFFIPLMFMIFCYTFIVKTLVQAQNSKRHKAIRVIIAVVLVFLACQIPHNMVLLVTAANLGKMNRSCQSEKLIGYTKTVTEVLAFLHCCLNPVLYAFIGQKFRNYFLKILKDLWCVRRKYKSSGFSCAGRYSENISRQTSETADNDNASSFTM", "test": "antagonism of CCR6 beta-arrestin recruitment – cell-based, luminescent beta-arrestin readout, dose response (AID 504728)", "format": "functional"}, "[19]": {"target": "Beta-galactosidase (Escherichia coli, UniProt Q8VNN2)", "test": "detection-enzyme interference by beta-gal modulators – biochemical, E. coli enzyme, set 3, artefact control for CCR6 antagonist project, dose response (AID 504712)", "format": "functional"}, "[20]": {"target": "Heat shock protein HSP 90-alpha (Homo sapiens, UniProt P07900)", "format": "functional, organism-based"}},
  "note": "The source made the active and inactive calls.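 For Absolute IC50 (XBP1) in this document: confirmatory dose-response counter-screen serving a CHOP assay.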",
  "data": [
    {"smiles": "N#Cc1cn(C2OC(CO)C(O)C2O)c2ncnc(N)c12", "note": "(stereo not given)", "values": [
      {"measurement": "AC50", "setting": "[1]", "value": "< 0.26 µM (active)"},
      {"measurement": "AC50", "setting": "[2]", "value": "0.621 µM (active)"},
      {"measurement": "EC50", "setting": "[3]", "value": "> 91.2 µM (inactive)"},
      {"measurement": "EC50", "setting": "[4]", "value": "> 91.2 µM (inactive)"},
      {"measurement": "AC50", "setting": "[5]", "value": "5.59 µM (active)"},
      {"measurement": "GI50", "setting": "[6]", "value": "0.0425 µM (active)"},
      {"measurement": "AC50", "setting": "[7]", "value": "< 0.26 µM (active)"},
      {"measurement": "AC50", "setting": "[8]", "value": "1.39 µM (active)"},
      {"measurement": "AC50", "setting": "[9]", "value": "< 0.26 µM (active)"}
    ]},
    {"smiles": "CC(C)(C)c1ccc(NC(=O)Nc2ccc(F)cc2)cc1", "values": [
      {"measurement": "Absolute IC50 (XBP1)", "setting": "[10]", "value": 10, "unit": "µM"}
    ]},
    {"smiles": "Cc1ccc(NC(=O)CN2C(=O)S/C(=C/c3ccc(O)c([N+](=O)[O-])c3)C2=O)cc1C", "values": [
      {"measurement": "IC50", "setting": "[11]", "value": "5.08 µM (active)"},
      {"measurement": "IC50", "setting": "[12]", "value": "50 µM (inactive)"},
      {"measurement": "IC50", "setting": "[13]", "value": "20.9 µM (active)"},
      {"measurement": "AC50", "setting": "[14]", "value": "7.6 µM (active)"}
    ]},
    {"smiles": "O=C(NCCc1ccccn1)c1cc(-c2ccco2)nc2ccccc12", "values": [
      {"measurement": "IC50", "setting": "[15]", "value": "> 56.8 µM (inactive)"},
      {"measurement": "IC50", "setting": "[16]", "value": "> 56.8 µM (inactive)"}
    ]},
    {"smiles": "O=[N+]([O-])c1cccc(C=NNc2ccc3ccccc3n2)c1O", "values": [
      {"measurement": "CC50", "setting": "[17]", "value": "1.44 µM (active)"},
      {"measurement": "IC50", "setting": "[18]", "value": "> 66.6 µM (inactive)"},
      {"measurement": "IC50", "setting": "[19]", "value": "> 66.6 µM (inactive)"},
      {"measurement": "AC50", "setting": "[20]", "value": "2.76 µM (active)"}
    ]}
  ]
}
